{"source": "patent US20130156845A1", "about": "“LIPID FORMULATED SINGLE STRANDED RNA” (ALNYLAM PHARMACEUTICALS, INC., priority 2010, published 2013)", "key": {"[1]": {"system": "A549 cells", "test": "MicroRNA mimics: cell cycle assay", "type": "cell-based", "conditions": "RNAIMAX transfection, 0.1-100 nM, nocodazole, propidium iodide flow cytometry", "experimental": "A cell cycle assay was used to evaluate the activity of microRNA mimics. A549 cells were plated at a density of approximately 45,000 cells per well of a 24-well plate. The following day, cells were transfected with microRNA mimics and control oligomeric compounds, using RNAIMAX as the transfection reagent. Oligomeric compounds were tested at concentrations ranging from 0.1 nM to 100 nM. Control oligomeric compounds were also tested. Approximately 24 hours following transfection, nocodazole was added to the cells at a concentration ranging from 0.5 to 2.0 μg/ml. Approximately 16 hours later, the cells were harvested, washed, ethanol-fixed and stained with propidium iodide. Cells cycle profiles were generated by subjecting the stained cells to flow cytometry (FACSCAN)."}, "[2]": {"system": "human PTEN", "test": "PTEN expression in HeLa cells, ssRNAs vs siRNAs (Example 62)", "type": "cell-based", "experimental": "A series of 5′ and 2′ bis-substituted modified oligomeric compounds were prepared as single strand RNAs (ssRNAs). The antisense (AS) strands listed below were designed to target human PTEN, and each was also assayed as part of a duplex with the same sense strand (ISIS 341401, shown below) for their ability to reduce PTEN expression levels. HeLa cells were treated with the single stranded or double stranded oligomeric compounds created with the antisense compounds shown below using methods described herein. The IC50's were calculated using the linear regression equation generated by plotting the normalized mRNA levels to the log of the concentrations used."}, "[3]": {"system": "PTEN", "test": "PTEN mRNA reduction in HeLa cells, dose response (Example 69)", "type": "cell-based, human", "conditions": "percent inhibition of PTEN mRNA, 0.067-50 nM", "experimental": "In accordance with the present disclosure, oligomeric compounds were synthesized and tested for their ability to reduce PTEN expression over a range of doses. Human HeLa cells were treated with either ISIS 447581, 467074, 418046 or 467076. A dose comparison was evaluated with dose concentrations of 0.067, 0.2, 0.62, 1.9, 5.5, 16.7 and 50 nM using methods described herein. Expression levels of PTEN were determined using real-time PCR and normalized to RIBOGREEN™ using methods described herein. The percent inhibition of PTEN mRNA was determined and the resulting dose-response curves were used to determine the EC50. The EC50s are listed below."}, "[4]": {"system": "PTEN", "test": "Liver PTEN mRNA in Balb/c mice, unformulated oligomeric compounds (Example 70)", "type": "in vivo, mouse", "conditions": "48 h; for inhibition of PTEN: 75 mg/kg, liver; for % inhibition: liver PTEN mRNA, single i.p. dose 75 mg/kg, normalized to saline control", "experimental": "Six-week-old male Balb/c mice (Jackson Laboratory, Bar Harbor, Me.) were injected intraperitenially with a single dose of 75 mg/kg of one of the three oligomeric compounds above or with saline control. Each dose group consisted of four animals. The mice were sacrificed 48 hours following administration. Livers were collected and PTEN mRNA levels were assessed using real-time PCR and RIBOGREEN® RNA quantification reagent (Molecular Probes, Inc. Eugene, Oreg.) according to standard protocols. PTEN mRNA levels were determined relative to total RNA (using Ribogreen), and normalized to the saline-treated control. Results are listed below as the average % inhibition of PTEN mRNA expression for each treatment group, normalized to saline-injected control."}, "[5]": {"system": "PTEN", "test": "In vivo evaluation of ssRNA formulated in lipid particle LNP06, liver PTEN mRNA (Example 77)", "set-up": "species or system mouse", "conditions": "ssRNA formulated in LNP06, 4.5 mg/kg tail vein, C57BL/6 mice, liver PTEN mRNA normalized to GAPDH, 2 days post injection", "experimental": "In accordance with the present disclosure, oligomeric compounds were synthesized and tested for their ability to reduce PTEN. C57BL/6 mice (Charles River Labs, MA) received either saline or LNP formulated single stranded RNA via tail vein injection at a volume of 0.01 mL/g and the single stranded RNA dose is 4.5 mg/kg. 25 groups of female mice and 9 modified ssRNAs targeting PTEN were formulated in LNP06 and tested. To determine liver mRNA levels of PTEN, 2 days post injection, animals were sacrificed and livers were harvested and snap frozen in liquid nitrogen. Liver lysates were prepared from the frozen tissues and liver mRNA levels of PTEN normalized to GAPDH were quantified using a branched DNA assay (QuantiGene Assay, Panomics, Calif.)."}, "[6]": {"test": "In vivo stability: tissue level of intact compound (Example 71)", "method": "The in vivo stability of the three oligomeric compounds in Example 70 was evaluated. The tissue samples were obtained from the animals in which PTEN was assessed. […] Quantitative analysis of the oligonucleotides standard were performed by extracted ion chromatograms in the most abundant charge state (−4) using Chemstation software."}, "[7]": {"test": "Modified ssRNA 5′-phosphate serum stability assay (Example 60)", "type": "in vitro ADME", "conditions": "full length ssRNA with 5′-terminal phosphate; 10 μM in 95% fresh mouse serum, 37° C., LC/MS", "source_text": "A serum stability assay is useful for evaluating the stability of oligomeric compounds in the presences of nucleases and other enzymes found in serum. For example, the stability of a 5′-terminal phosphate group of an oligomeric compound can be evaluated by assessing the ability of the 5′-terminal phosphate group to remain attached to the oligomeric compound in the presence of serum. Accordingly, a serum stability assay was employed to evaluate the stability of modified ssRNAs having a 5′-terminal phosphate group.\nVarious modified ssRNAs, shown below, having a 5′-terminal phosphate group (10 μM) were dissolved in 95% of fresh mouse serum and incubated at 37° C. Aliquots of serum (100 μL) were removed after 0, 1, 3, 6 or 24 hours of incubation times. The serum samples were immediately quenched and snap frozen. The samples were extracted by the strong anion exchange (SAX) and octadecylsilyl (C-18) columns. For each incubation time, the amount of full length modified ssRNA having a 5′-terminal phosphate group was determined by LC/MS, and the half-life of the full length modified ssRNA having a 5′ terminal phosphate group was calculated. The results are expressed as half-time (T1/2) in the table below."}, "[8]": {"test": "Phosphate stability in mouse serum (Example 68)", "method": "Single-stranded oligomeric compounds were tested for stability in mouse serum."}, "[9]": {"conditions": "antisense strand duplexed with sense strand ISIS 341401, PTEN mRNA, read-out: EC50 (nM) siRNA"}, "[10]": {"conditions": "single stranded antisense compound, PTEN mRNA, read-out: EC50 (nM) ssRNA"}, "[11]": {"conditions": "Dose @ 75 mg/kg (48 h time point)"}, "[12]": {"conditions": "full compound with intact phosphorous moiety, first table"}}, "note": "Read-outs that look alike come from different tables or passages of the source. Strand notation (5' to 3'): a small letter for the sugar, then the base; units joined by * are phosphorothioate-linked, units joined directly phosphodiester-linked; [ ] holds rarer units or linkages, { } end groups; capitals alone tell only the bases. [DMAEAc-N] = nucleoside with 2'-O-dimethylaminoethyl acetamide (DMAEAc) sugar (N: the base); [R5Me] = (R)-5'-methyl-2'-deoxythymidine; e = 2'-O-(2-methoxyethyl) (MOE); m = 2'-O-methyl; {P} = phosphate; f = 2'-fluoro"}
{"substance": "P-UmAfGfCfAfGfCfAfCmGmUfAfAmAmUfAfUfUfGfGmCmGmAeAe [ss miR-16]", "values": [{"measurement": "cell cycle phenotype", "setting": "[1]", "value": "blocking cells in the G1 phase of the cell cycle"}]}
{"substance": "P-TScUfGmUfCmUfCmUfGmGfUmCfCmUfUmAfCmUfUmAeAe (antisense TUGUCUCUGGUCCUUACUUAA; 5'-phosphate, 2'-F/2'-OMe, MOE modifications, chemistry not fully specified) [ISIS 467074]", "values": [{"measurement": "EC50", "setting": "[2]; [9]", "value": 0.1, "unit": "nM"}, {"measurement": "EC50", "setting": "[2]; [10]", "value": 2.5, "unit": "nM"}, {"measurement": "EC50", "setting": "[3]", "value": 2.5, "unit": "nM"}, {"measurement": "inhibition of PTEN", "setting": "[4]", "value": "lowest amount of PTEN reduction"}, {"measurement": "% inhibition", "setting": "[4]", "value": 11, "unit": "%"}, {"measurement": "% Kd", "setting": "[5]", "value": 52, "unit": "%"}, {"measurement": "compound lacking the 5′-phosphate in tissue", "setting": "[6]; 75 mg/kg, 48 h", "value": "detected"}, {"measurement": "level of intact compound in tissue", "setting": "[6]; 75 mg/kg, 48 h", "value": "not detected"}, {"measurement": "Tissue Level of intact compound (μg/g)", "setting": "[6]; [11]", "value": "none detected"}]}
{"substance": "P-USfUfGfUfCfUfCfUfGfGfUfCfCfUfUfAfCfUfUf (antisense UUGUCUCUGGUCCUUACUU; 5'-phosphate, 2'-F, phosphorothioate, chemistry not fully specified) [ISIS 398701, modified ssRNA targeting PTEN]", "values": [{"measurement": "T1/2", "setting": "[7]", "value": 18.2, "unit": "h"}]}
{"substance": "P-TdUfGfUfCfUfCfUfGfGfUfCfCfUfUfAfCfUfUfAeAe (antisense {P}-[DMAEAc-T]fUfGfUfCfUfCfUfGfGfUfCfCfU*fU*fA*fC*fU*fU*eA*eA) [ISIS 422391]", "values": [{"measurement": "T1/2", "setting": "[7]", "value": 6.5, "unit": "h"}, {"measurement": "EC50", "setting": "[2]; [9]", "value": 0.5, "unit": "nM"}, {"measurement": "EC50", "setting": "[2]; [10]", "value": 5, "unit": "nM"}, {"measurement": "T1/2 full length", "setting": "[8]; four compounds tested separately, second table", "value": 3.7, "unit": "h"}, {"measurement": "T1/2 full length", "setting": "[8]; [12]", "value": 6.5, "unit": "h"}]}
{"substance": "Py-^meUmUfGmUfCmUfCmUfGmGfUmCfCmUfUmAfCmUfUmAeAe (antisense UUGUCUCUGGUCCUUACUUAA; 5'-methylenephosphonate, 2'-F/2'-OMe, MOE, chemistry not fully specified) [ISIS 467076]", "values": [{"measurement": "EC50", "setting": "[2]; [9]", "value": 0.05, "unit": "nM"}, {"measurement": "EC50", "setting": "[2]; [10]", "value": 6, "unit": "nM"}, {"measurement": "EC50", "setting": "[3]", "value": 6, "unit": "nM"}, {"measurement": "inhibition of PTEN", "setting": "[4]", "value": "smaller inhibition of PTEN"}, {"measurement": "% inhibition", "setting": "[4]", "value": 16, "unit": "%"}, {"measurement": "% Kd", "setting": "[5]", "value": 34, "unit": "%"}, {"measurement": "level of intact compound in tissue", "setting": "[6]; 75 mg/kg, 48 h", "value": "present at a lower concentration"}, {"measurement": "Tissue Level of intact compound", "setting": "[6]; [11]", "value": 22.5, "unit": "µg/g"}]}
{"substance": "P-TRUfGfUfCfUfCfUfGfGfUfCfCfUfUfAfCfUfUfAeAe (antisense TUGUCUCUGGUCCUUACUUAA; sugars from the 5' end [R5Me]1 f18 e2, 5' {P}, backbone not given here) [ISIS 432356]", "values": [{"measurement": "T1/2", "setting": "[7]", "value": 8.7, "unit": "h"}, {"measurement": "EC50", "setting": "[2]; [9]", "value": 0.7, "unit": "nM"}, {"measurement": "EC50", "setting": "[2]; [10]", "value": 3, "unit": "nM"}, {"measurement": "T1/2 full length", "setting": "[8]; [12]", "value": 8.7, "unit": "h"}]}
{"substance": "P-UmUfGmUfCmUfCmUfGmGfUmCfCmUfUmAfCmUfUmAeAe (antisense UUGUCUCUGGUCCUUACUUAA; sugars from the 5' end mfmfmfmfmfmfmfmfmfmee, 5' {P}, backbone not given here) [ISIS 418046, modified ssRNA targeting PTEN]", "values": [{"measurement": "EC50", "setting": "[2]; [9]", "value": 0.2, "unit": "nM"}, {"measurement": "EC50", "setting": "[2]; [10]", "value": 2, "unit": "nM"}, {"measurement": "EC50", "setting": "[3]", "value": 0.83, "unit": "nM"}]}
{"substance": "ds miR-16: double-stranded miR-16 mimic: UAGCAGCACGUAAAUAUUGGCG (SEQ 21) with AAAGCGUCGUGCAUUUAUAACC (SEQ 22) (chain 2 CCAAUAUUUACGUGCUGCGAAA; listed as RNA, chemistry not given here) [reference compound]", "values": [{"measurement": "cell cycle phenotype", "setting": "[1]", "value": "blocked cells in the G1 phase of the cell cycle"}]}
